Measurements as given in the supplement of paper PMC10627819.

Experiments:
Assay in all cases: fitness (endpoint OD595 vs no drug) (fraction); higher = more growth
[1] = tested on: S. aureus Newman
In short: (§1)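 Background-subtracted growth curves were the basis for fitness, taken as the optical density at entry into stationary phase over the robust mean of no-drug control wells. A cap of 1 was applied. The curves came from OD595 readings every 30 min for 14 h at 37 °C, in 384-well plates seeded at OD595 0.01 with 30 µl, or 55 µl for S. pneumoniae.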

[2] = tested on: S. pneumoniae D39V
In short: as §1

[3] = tested on: B. subtilis 168
In short: as §1

[4] = first compound 1 µg/mL, partner 2 µg/mL
[5] = first compound 2 µg/mL, partner 2 µg/mL
[6] = first compound 4 µg/mL, partner 2 µg/mL
[7] = first compound 1 µg/mL, partner 8 µg/mL
[8] = first compound 2 µg/mL, partner 8 µg/mL
[9] = first compound 4 µg/mL, partner 4 µg/mL
[10] = first compound 4 µg/mL, partner 8 µg/mL

SMILES: O=C(O)[C@H]1/C(=C/CO)O[C@@H]2CC(=O)N21 [Clavulanic acid] + COc1c(N2C[C@@H]3CCCN[C@@H]3C2)c(F)cc2c(=O)c(C(=O)O)cn(C3CC3)c12 [Moxifloxacin]
- fitness ([1]; first compound 0.03125 µg/mL, partner 0.0075 µg/mL, one replicate): 0.823
- fitness ([1]; first compound 0.03125 µg/mL, partner 0.015 µg/mL, one replicate): 0.742
- fitness ([1]; first compound 0.03125 µg/mL, partner 0.03 µg/mL, one replicate): 0.393
- fitness ([1]; first compound 0.0625 µg/mL, partner 0.0075 µg/mL, one replicate): 0.786
- fitness ([1]; first compound 0.0625 µg/mL, partner 0.015 µg/mL, one replicate): 0.693
- fitness ([1]; first compound 0.0625 µg/mL, partner 0.03 µg/mL, one replicate): 0.312
- fitness ([1]; first compound 0.125 µg/mL, partner 0.0075 µg/mL, one replicate): 0.779
- fitness ([1]; first compound 0.125 µg/mL, partner 0.015 µg/mL, one replicate): 0.699
- fitness ([1]; first compound 0.125 µg/mL, partner 0.03 µg/mL, one replicate): 0.417
- fitness ([2]; first compound 0.5 µg/mL, partner 0.005 µg/mL): 0.952
- fitness ([2]; first compound 0.5 µg/mL, partner 0.01 µg/mL): 0.982
- fitness ([2]; first compound 0.5 µg/mL, partner 0.02 µg/mL): 0.896
- fitness ([2]; first compound 0.5 µg/mL, partner 0.0312 µg/mL): 0.0616
- fitness ([2]; first compound 0.5 µg/mL, partner 0.0625 µg/mL): 0.0525
- fitness ([2]; first compound 0.5 µg/mL, partner 0.125 µg/mL): 0.0269
- fitness ([2]; first compound 1 µg/mL, partner 0.005 µg/mL): 0.94
- fitness ([2]; first compound 1 µg/mL, partner 0.01 µg/mL): 0.964
- fitness ([2]; first compound 1 µg/mL, partner 0.02 µg/mL): 0.908
- fitness ([2]; first compound 1 µg/mL, partner 0.0312 µg/mL): 0.198
- fitness ([2]; first compound 1 µg/mL, partner 0.0625 µg/mL): 0.173
- fitness ([2]; first compound 1 µg/mL, partner 0.125 µg/mL): 0.189
- fitness ([2]; first compound 2 µg/mL, partner 0.005 µg/mL): 0.891
- fitness ([2]; first compound 2 µg/mL, partner 0.01 µg/mL): 0.939
- fitness ([2]; first compound 2 µg/mL, partner 0.02 µg/mL): 0.844
- fitness ([2]; first compound 2 µg/mL, partner 0.0312 µg/mL): 0.0371
- fitness ([2]; first compound 2 µg/mL, partner 0.0625 µg/mL): 0.0368
- fitness ([2]; first compound 2 µg/mL, partner 0.125 µg/mL): 0.0371
- fitness ([3]; first compound 1.5 µg/mL, partner 0.0312 µg/mL): 0.0422
- fitness ([3]; first compound 1.5 µg/mL, partner 0.0625 µg/mL): 0.0379
- fitness ([3]; first compound 1.5 µg/mL, partner 0.125 µg/mL): 0.0596
- fitness ([3]; first compound 1.5 µg/mL, partner 2 µg/mL): 0.0304
- fitness ([3]; first compound 1.5 µg/mL, partner 4 µg/mL): 0.0307
- fitness ([3]; first compound 1.5 µg/mL, partner 8 µg/mL): 0.0071
- fitness ([3]; first compound 3 µg/mL, partner 0.0312 µg/mL): 0.0399
- fitness ([3]; first compound 3 µg/mL, partner 0.0625 µg/mL): 0.0399
- fitness ([3]; first compound 3 µg/mL, partner 0.125 µg/mL): 0.0536
- fitness ([3]; first compound 3 µg/mL, partner 2 µg/mL): 0.0289
- fitness ([3]; first compound 3 µg/mL, partner 4 µg/mL): 0.0394
- fitness ([3]; first compound 3 µg/mL, partner 8 µg/mL): 0.0171
- fitness ([3]; first compound 6 µg/mL, partner 0.0312 µg/mL): 0.0317
- fitness ([3]; first compound 6 µg/mL, partner 0.0625 µg/mL): 0.0196
- fitness ([3]; first compound 6 µg/mL, partner 0.125 µg/mL): 0.0562
- fitness ([3]; first compound 6 µg/mL, partner 2 µg/mL): 0.0285
- fitness ([3]; first compound 6 µg/mL, partner 4 µg/mL): 0.0252
- fitness ([3]; first compound 6 µg/mL, partner 8 µg/mL): 0.0156

SMILES: Cc1cc(NS(=O)(=O)c2ccc(N)cc2)no1 [Sulfamethoxazol] + CN[C@@H]1[C@H](O[C@H]2[C@H](O[C@H]3[C@H](O)[C@@H](O)[C@H](N=C(N)N)[C@@H](O)[C@@H]3N=C(N)N)O[C@@H](C)[C@]2(O)C=O)O[C@@H](CO)[C@H](O)[C@H]1O [Streptomycin]
- fitness ([1]; first compound 1 µg/mL, partner 1 µg/mL): 0.98
- fitness [1, 4]: 0.968
- fitness ([1]; first compound 2 µg/mL, partner 1 µg/mL): 0.939
- fitness [1, 5]: 0.999
- fitness ([1]; first compound 2 µg/mL, partner 8 µg/mL, one replicate): 0.913
- fitness ([1]; first compound 4 µg/mL, partner 1 µg/mL): 0.956
- fitness [1, 6]: 0.93
- fitness ([1]; first compound 4 µg/mL, partner 8 µg/mL, one replicate): 0.876
- fitness ([1]; first compound 8 µg/mL, partner 2 µg/mL, one replicate): 0.973
- fitness ([1]; first compound 8 µg/mL, partner 4 µg/mL, one replicate): 0.964
- fitness ([1]; first compound 8 µg/mL, partner 8 µg/mL, one replicate): 0.897
- fitness [2, 4]: 0.962
- fitness ([2]; first compound 1 µg/mL, partner 4 µg/mL): 0.932
- fitness [2, 7]: 0.877
- fitness ([2]; first compound 1 µg/mL, partner 16 µg/mL, one replicate): 0.763
- fitness [2, 5]: 0.962
- fitness ([2]; first compound 2 µg/mL, partner 4 µg/mL): 0.932
- fitness [2, 8]: 0.908
- fitness ([2]; first compound 2 µg/mL, partner 16 µg/mL, one replicate): 0.78
- fitness [2, 6]: 0.932
- fitness [2, 9]: 0.944
- fitness [2, 10]: 0.95
- fitness ([2]; first compound 4 µg/mL, partner 16 µg/mL, one replicate): 0.79
- fitness ([3]; first compound 0.5 µg/mL, partner 2 µg/mL, one replicate): ≥ 1
- fitness ([3]; first compound 0.5 µg/mL, partner 4 µg/mL, one replicate): ≥ 1
- fitness ([3]; first compound 0.5 µg/mL, partner 8 µg/mL, one replicate): 0.0922
- fitness [3, 4]: 0.903
- fitness [3, 7]: 0.045
- fitness [3, 5]: 0.9
- fitness [3, 8]: 0.0312
- fitness [3, 6]: 0.888
- fitness [3, 9]: 0.153
- fitness [3, 10]: 0.0185
